Square brackets hold non-standard residues; d marks the D form. Ends that are not written are not given here. Peptide text beside a SMILES is read from it. d2Nal = N[C@H](Cc1ccc2ccccc2c1)C(=O)O; Aib = CC(C)(N)C(=O)O
Experiments:
[1] = test system: ferrets treated with cisplatin; assay: Anti-emetic response assay in ferrets treated with cisplatin; type: in vivo, ferret; details: for average vomiting episodes during the 4-hour observation period / average retching episodes during the 4-hour observation period: cisplatin 10 mg/kg i.p., two i.v. injections 30 min apart, ghrelin 0.25, ipamorelin 1.0 mg/kg/dose; for average vomiting episodes during the 4-hour observation period: saline control 1.78; for average retching episodes during the 4-hour observation period: saline control 4.89; for anti-emetic efficacy relative to control animals, conclusion in words: i.v., ghrelin 0.25 mg/kg/dose, ipamorelin 1.0 mg/kg/dose; for onset time of emetic response following cisplatin administration (latent period): vs saline control, 4-hour observation
Text: The purpose of this study was to evaluate the anti-emetic response of Ipamorelin following a single intravenous injection (slow bolus) in ferrets treated with cisplatin.
30 male ferrets (24-weeks old) were used in this experiment. Subsequent to arrival, all animals were subjected to a general physical examination by a qualified member of the veterinary staff to ensure normal health status. An acclimation period of at least one week was allowed between the animal receipt and the start of treatment in order to accustom the animals to the laboratory environment.
Animals were randomized into the following groups:
Dosing occurred on consecutive days with approximately equal numbers of animals from each group being dosed on each day. Immediately following a single intraperitoneal injection of cisplatin, the controUreference/test article was administered via a slow intravenous injection via the cephalic or saphenous vein. Thirty minutes later, a second slow intravenous injection of the controUreference/test article was administered via a slow intravenous injection via the cephalic or saphenous vein. On each occasion, the dose volume was 5 mL/kg (cisplatin as well as control/reference/test article) and the actual dose administered was based on the most recent practical body weight of each animal.
Following dosing, the ferrets were monitored and observed for episodes of emesis for an approximate four hour period, which was subdivided into 10-minute intervals. The time prior to the first episode of retching or vomiting was recorded (latent period), as well the total number of retching and vomiting periods, over each 10-minute interval, through the overall observation period (4 hours post dose).
For the purposes of this study, episodes of emesis were defined as rhythmic abdominal contractions associated with oral expulsion of solid or liquid material from the gastrointestinal tract (i.e. vomiting) or not associated with the passage of material (i.e. retching). An episode of retching and/or vomiting was considered separate when an animal changed position in the cage or when the interval between retches and/or vomits exceeds an approximate 5 second period.
The anti-emetic response was evaluated using the individual observation for: the latent period, the average of retching episodes per 10-minute interval with presence of retching, the average of vomiting episodes per 10-minute interval with presence of vomiting, the total frequency of retching episodes for the observation period, the total frequency of vomiting episodes for the observation period, the total number of 10-minute intervals with presence of retching and the total number of 10-minute intervals with presence of vomiting. Whenever there was no retching or vomiting episode for the whole animal observation period, the latent period was set to 4 hours and the average of retching/vomiting episodes per interval with presence of retching/vomiting was set to zero. Each of these seven parameters was submitted to the following statistical comparison.
The non-parametric Kruskal-Wallis test was used to compare all considered groups. If the Kruskal-Wallis test was significant (p<0.05), then the Saline Control group was compared to each treated group using Dunn's test.

[2] = test system: cancer patients; assay: 12 week double blind, placebo controlled, randomized parallel study, Anderson Symptom Assessment System (ASAS) test; type: in vivo, human; details: 12 weeks
Text: A double blind, placebo controlled, randomized study was designed to investigate the ability of growth hormone secretagogues to be used for the treatment of emetic conditions.
82 human subjects were enrolled in a 12 week parallel study. Of the 82 subjects, 74 subjects were classified in the intent to treat group (ITT). These 74 subjects all had active cancer, received at least one dose of study medication, and had at least one post-dose efficacy measurement. The 74 subjects were separated into two groups: the placebo group and the RC-1291 group. 30 of the 36 placebo group subjects and 33 of the 38 RC-1291 group subjects were receiving some form of chemotherapy. The RC-1291 group received 50 mg of RC-1291 in two 25 mg capsules daily. The placebo group received two capsules daily.
The effect of RC-1291 administered to cancer patients was compared to the effect of placebo administered to a similar group of patients. In order to determine the ability of RC-1291 to reduce a subject's cancer symptom burden, i.e. Quality-of-Life, subjects were administered the Anderson Symptom Assessment System (ASAS) test prior to, during and at the completion of the study. The ASAS test is conducted by asking subjects to rate on a 0-10 scale the severity of 10 symptoms: pain, fatigue, nausea, depression, anxiety, drowsiness, shortness of breath, appetite, sleep and feeling of well being (see, Palmer et al. (2005) J. Pain and Symptom Management 6:565-571). The text below reflects and inversion of the ASAS scores such that higher values reflect a better Quality-of-Life: […]

[3] = test system: cancer patients; assay: Separate crossover study (3 days treatment), ASAS nausea symptom scale; type: in vivo, human
Protocol: The effect of RC-1291 administered to cancer patients was compared to the effect of placebo administered to a similar group of patients. In order to determine the ability of RC-1291 to reduce a subject's cancer symptom burden, i.e. Quality-of-Life, subjects were administered the Anderson Symptom Assessment System (ASAS) test prior to, during and at the completion of the study. The ASAS test is conducted by asking subjects to rate on a 0-10 scale the severity of 10 symptoms: pain, fatigue, nausea, depression, anxiety, drowsiness, shortness of breath, appetite, sleep and feeling of well being (see, Palmer et al. (2005) J. Pain and Symptom Management 6:565-571). The text below reflects and inversion of the ASAS scores such that higher values reflect a better Quality-of-Life:
In a separate crossover study, 16 cancer patients were treated with RC-1291 or placebo as described above for 3 days, washed out for ˜5 days and then administered placebo or RC-1291 (whichever one they had not received in the initial 3 day period). 12 of 16 placebo group subjects and 11 of the 16 RC-1291 group subjects were receiving some form of chemotherapy.

Compound | average vomiting episodes during the 4-hour observation period [1] | average retching episodes during the 4-hour observation period [1] | anti-emetic efficacy relative to control animals, conclusion in words [1] | onset time of emetic response following cisplatin administration (latent period) [1] | increase in total ASAS score relative to baseline ([2]; 50 mg daily in two 25 mg capsules, inverted ASAS scores (higher = better Quality-of-Life), placebo decrease of 5.13) | overall difference in total ASAS score between the two groups ([2]; RC-1291 50 mg daily vs placebo, p-0.0287) | ASAS nausea symptom scale, overall difference between treatment groups ([2]; RC-1291 50 mg daily vs placebo, p=0.0046) | onset of anti-nausea effects [3] | ASAS nausea symptom scale, overall difference between treatments ([3]; RC-1291 vs placebo, p=0.0756) | nausea (ASAS nausea symptom scale), result in words ([3]; increased nausea with placebo) | reduction in number of retching episodes compared to saline control animals ([1]; ipamorelin 1.0 mg/kg/dose i.v., p<0.05) | reduction in vomiting episodes relative to saline control animals ([1]; ipamorelin 1.0 mg/kg/dose i.v., p>0.05)
Ghrelin: ghrelin peptide, reference article in the ferret study (GSSFLSPEHQRVQQRKESKKPPAKLQPR; ends and bridges not checked; UniProt Q9UBU3 24-51, looked up) [reference compound] | 1.60 | 7.00 | did not display a significant efficacy | Neither the onset time nor the numbers of retches or vomits were statistically different | – | – | – | – | – | – | – | –
CN(C)N(C)C(=O)[C@@]1(Cc2ccccc2)CCCN(C(=O)[C@@H](Cc2c[nH]c3ccccc23)NC(=O)C(C)(C)N)C1 [RC-1291] | – | – | – | – | 1.52 | 6.66 | 1.46 | ≤ 3 days | 0.71 | Decreased nausea | – | –
CC(C)(N)C(=O)N[C@@H](Cc1c[nH]cn1)C(=O)N[C@H](Cc1ccc2ccccc2c1)C(=O)N[C@H](Cc1ccccc1)C(=O)N[C@@H](CCCCN)C(N)=O [Ipamorelin] (H-[Aib]H[d2Nal][dF]K-NH2) | 0.75 | 1.14 | significantly decreased the number of retching episodes | modest, non-statistically significant (p>0.05) delay | – | – | – | – | – | – | 82% | failed to reach statistical significance

Source: US20120232113A1, “METHODS OF TREATING EMESIS USING GROWTH HORMONE SECRETAGOGUES” (HELSINN THERAPEUTICS (U.S.), INC., priority 2007, published 2012)
